Results as given in patent publication US10294229B2, “Heteroaryl substituted aminopyridine compounds” (BRISTOL-MYERS SQUIBB COMPANY, priority 2015, dated 2019).

Assays:
[1] = test system: Human whole blood stimulated with a TLR2 agonist (lipoteichoic acid), IL-6 levels; assay: IRAK4 Whole Blood Assay; type: cell-based; details: Homo sapiens, lipoteichoic acid 10 μg/mL
Method: Human whole blood containing the anti-coagulant ACD-A was plated in 384-well plate (25 μL/well) and incubated with compounds for 60 minutes at 37° C. in a 5% CO2 incubator. The blood was stimulated with a TLR2 agonist, 10 μg/mL final concentration of lipoteichoic acid (Invivogen, San Diego, Calif.) in 25 μL RPMI (Gibco) for 5 hours in a 5% CO2 incubator. At the end of the incubation, plates were centrifuged at 2300 rpm for 5 minutes. Supernatants were harvested and analyzed for IL-6 levels by Flow Cytometry beads assay (BD Biosciences, San Jose, Calif.).

IRAK4 = IRAK4 (Homo sapiens (Human), UniProt Q9NWZ3); assay: IRAK4 Inhibition Assay; type: biochemical; details: ATP 500 μM; IRAK4 0.6 nM
Procedure, shortened: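 Readout: electrophoretic (LabChip) separation of fluorescent peptide substrate from phosphorylated product after EDTA quench. Reactions ran 60 min at room temperature with 0.6 nM IRAK4, 1.5 μM peptide and 500 μM ATP; inhibition referenced to no-enzyme (100%) and vehicle (0%) controls.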

Chain of IRAK4 (Q9NWZ3 whole entry, species assumed): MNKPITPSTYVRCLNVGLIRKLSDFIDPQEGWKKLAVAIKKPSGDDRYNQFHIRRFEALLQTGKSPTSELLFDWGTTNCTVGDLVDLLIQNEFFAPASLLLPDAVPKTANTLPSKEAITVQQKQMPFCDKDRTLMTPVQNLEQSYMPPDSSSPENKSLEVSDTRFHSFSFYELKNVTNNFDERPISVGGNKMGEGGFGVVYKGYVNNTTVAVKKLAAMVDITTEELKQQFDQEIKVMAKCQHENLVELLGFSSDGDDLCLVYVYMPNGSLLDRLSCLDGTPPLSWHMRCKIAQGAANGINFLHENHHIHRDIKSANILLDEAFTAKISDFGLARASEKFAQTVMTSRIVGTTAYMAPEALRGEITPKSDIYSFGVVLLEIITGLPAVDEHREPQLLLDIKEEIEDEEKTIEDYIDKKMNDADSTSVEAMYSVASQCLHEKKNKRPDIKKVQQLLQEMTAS

CC(C)Nc1cc(-n2ncc3cc(C#N)cnc32)ncc1-n1cc(C2CCC(NC(C)C)CC2)nn1 (stereo not shown) [Example 343, 1-(4-(isopropylamino)-5-(4-((1 s,4s)-4-(isopropylamino)cyclohexyl)-1H-1,2,3-triazol-1-yl)pyridin-2-yl)-1H-pyrazolo[3,4-b]pyridine-5-carbonitrile]
EC50 [1]: 520 nM
IC50 (IRAK4): 3 nM

CCCc1cn(-c2cnc(-n3ncc4cc(C#N)cnc43)cc2NC2CCOCC2)nn1 [Example 283, 1-(5-(4-propyl-1H-1,2,3-triazol-1-yl)-4-((tetrahydro-2H-pyran-4-yl)amino)pyridin-2-yl)-1H-pyrazolo[3,4-b]pyridine-5-carbonitrile]
EC50 [1]: 1280 nM
IC50 (IRAK4): 7 nM

COC(=O)NC1CCC(c2cn(-c3cnc(-n4ncc5cc(C#N)cnc54)cc3NC(C)C)nn2)CC1 (stereo not shown) [Example 344, methyl ((1s,4s)-4-(1-(6-(5-cyano-1H-pyrazolo[3,4-b]pyridin-1-yl)-4-(isopropylamino)pyridin-3-yl)-1H-1,2,3-triazol-4-yl)cyclohexyl)carbamate]
EC50 [1]: 650 nM
IC50 (IRAK4): 3 nM

CC(C)Nc1cc(-n2ncc3cc(C#N)cnc32)ncc1-c1cn(CC(O)C(F)(F)F)nn1 (stereo not shown) [Example 129, 1-(4-(isopropylamino)-5-(1-(3,3,3-trifluoro-2-hydroxypropyl)-1H-1,2,3-triazol-4-yl)pyridin-2-yl)-1H-pyrazolo[3,4-b]pyridine-5-carbonitrile]
EC50 [1]: 830 nM
IC50 (IRAK4): 7 nM

CC(C)Nc1cc(-n2ncc3cc(C#N)cnc32)ncc1-c1cn(CCc2ccccn2)nn1 [Example 118, 1-(4-(isopropylamino)-5-(1-(2-(pyridin-2-yl)ethyl)-1H-1,2,3-triazol-4-yl)pyridin-2-yl)-1H-pyrazolo[3,4-b]pyridine-5-carbonitrile]
EC50 [1]: 1090 nM
IC50 (IRAK4): 3 nM

CC(C)Nc1cc(-n2ncc3cc(C#N)cnc32)ncc1-c1cn(C2CN(C)C2)nn1 [Example 151, 1-(4-(isopropylamino)-5-(1-(1-methylazetidin-3-yl)-1H-1,2,3-triazol-4-yl)pyridin-2-yl)-1H-pyrazolo[3,4-b]pyridine-5-carbonitrile, 2TFA]
EC50 [1]: 1610 nM
IC50 (IRAK4): 2 nM

Cc1nnc(N2CC(n3cc(-c4cnc(-n5ncc6cc(C#N)cnc65)cc4NC(C)C)nn3)C2)o1 [Example 148, 1-(4-(isopropylamino)-5-(1-(1-(5-methyl-1,3,4-oxadiazol-2-yl)azetidin-3-yl)-1H-1,2,3-triazol-4-yl)pyridin-2-yl)-1H-pyrazolo[3,4-b]pyridine-5-carbonitrile]
EC50 [1]: 1900 nM
IC50 (IRAK4): 5 nM

CC(C)Nc1cc(-n2ncc3cc(C#N)cnc32)ncc1-c1cn(CCCF)nn1 [Example 44, 1-(5-(1-(3-fluoropropyl)-1H-1,2,3-triazol-4-yl)-4-(isopropylamino)pyridin-2-yl)-1H-pyrazolo [3,4-b]pyridine-5-carbonitrile]
EC50 [1]: 630 nM
IC50 (IRAK4): 7 nM

CC(C)Nc1cc(-n2ncc3cc(C#N)cnc32)ncc1-c1cn(C2CN(C(=O)c3ccccc3)C2)nn1 [Example 143, 1-(5-(1-(1-benzoylazetidin-3-yl)-1H-1,2,3-triazol-4-yl)-4-(isopropylamino)pyridin-2-yl)-1H-pyrazolo[3,4-b]pyridine-5-carbonitrile]
EC50 [1]: 970 nM
IC50 (IRAK4): 8 nM

CC(C)Nc1cc(-n2ncc3cc(C#N)c(N)nc32)ncc1-c1cn(CCCF)nn1 [Example 46, 6-amino-1-(5-(1-(3-fluoropropyl)-1H-1,2,3-triazol-4-yl)-4-(isopropylamino)pyridin-2-yl)-1H-pyrazolo[3,4-b]pyridine-5-carbonitrile]
EC50 [1]: 490 nM
IC50 (IRAK4): 14 nM

CC(C)Nc1cc(-n2ncc3cc(C#N)cnc32)ncc1-c1cn([C@H]2CCN(C(=O)c3ccccn3)C[C@H]2O)nn1 [Example 183, 1-(5-(1-((3R,4S)-3-hydroxy-1-picolinoylpiperidin-4-yl)-1H-1,2,3-triazol-4-yl)-4-(isopropylamino)pyridin-2-yl)-1H-pyrazolo[3,4-b]pyridine-5-carbonitrile]
EC50 [1]: 520 nM
IC50 (IRAK4): 10 nM
